Consider 89 molecules from a melting point compilation (Tetko et al.; mined from patent text by program, amines drawn as free bases though some values may be those of a salt).

As usually defined, the melting point is the temperature, or range, at which the solid turns liquid. `Cc1cc(C#N)ccc1N1CCOCC1` displayed a melting point of 85 to 86 °C.
`COc1cc(C=CC(=O)OC2CC3CC(OC(=O)c4cc(OC)c(OC)c(OC)c4)CC2N3C)cc(OC)c1OC` (centres undefined) registered a melting point of 40 to 42 °C.
Then `C[C@H](CN(O)C(N)=O)NC(=O)c1cccc(Oc2ccccc2)c1`, with 154 °C.
Then `Cn1c(C(F)(F)F)ccc(-c2c(F)cc(Cl)c3oc(C(Br)Br)cc23)c1=O`, with 107 to 109 °C.
The molecule `CC1(C(=O)c2c[nH]c3ncc(-c4cccc(N5CCCC5)c4)nc23)CCCCC1` had a melting point of 180 to 182 °C.
In the case of `NCC(CC(=O)O)C1CCCC1` (centres undefined), the melting point was 178 to 180 °C.
The molecule `CCOC(=O)c1c(CC)nc2c(C(F)(F)F)cccc2c1O` had a melting point of 129 °C.
Molecule `C[C@@H](O)CNC1=NS(=O)(=O)c2sc(Cl)cc2N1` gave a melting point of 210 to 211 °C.
`CCOC(=O)Cc1cccc(-c2nc(COc3ccc(COc4nn(-c5ccccc5)cc4C=O)cc3OC)c(C)o2)c1` returned a melting point of 145 to 146 °C.
Then `COc1ccc(CC(=O)Nc2c(C)c(C)c3c(c2C)[C@@H](c2ccc(C)cc2)C(C)(C)O3)cc1`, with 166 to 167 °C; and `COc1ccc(-c2cc(-c3ccccc3)[nH]c2C(=O)NCc2ccc(C(=O)Nc3ccccc3S)cc2)cc1`, with 134 to 135 °C.
For the molecule `OCCON=Cc1ccc2ccccc2c1`, the melting point was found to be 87 °C.
`CC1CCN(Cc2cccc(OCCCNc3nc(N)nn3C)c2)CC1` had a melting point of 133 to 134 °C.
`CC(C)(C)c1ccccc1NC(=O)OCC1(COC(=O)Nc2ccccc2C(C)(C)C)CSc2ccccc2C1=O` gave a melting point of 62 to 68 °C.
`CCOC(=O)c1c(-c2ccc(OC)c(OC)c2)c2cc(C)ccc2[nH]c1=O`: the melting point lay in the range of 220 to 221 °C.
Then `CCC(=O)Cc1ccc(C(=O)Nc2ccc3cc(C(C)N4CCCC4)cnc3c2C)cc1` (centres undefined), with 123 to 127 °C; and `CN(C)CCOC(=O)C1CCc2c([nH]c3ccc(Cl)cc23)C1` (centres undefined), with 123 to 124 °C.
As to `COc1ccc(C2(c3ccc(OC)cc3)CC2(C)Br)cc1` (centres undefined), the melting point was in the range of 97 to 104 °C.
In turn, `CCOC(=O)C1=C(COCCNC(N)=S)NC(C)=C(C(=O)OC)C1c1cccc(Cl)c1Cl` (centres undefined) had a melting point of 198 °C.
`OC(CCN1CC=C(c2ccccc2)CC1)c1ccc(Cl)cc1` (centres undefined) yielded a melting point of 141 °C.
`Cc1sc2c(c1C(=O)c1ccccc1)CCC2C(=O)O` (centres undefined) had a melting point of 145 to 147 °C.
In turn, `COc1c(Br)c(-c2cc(C(C)C)n(C)n2)cc2oc(=O)c(Cl)c(C)c12` had a melting point of 165 °C.
In turn, `CSCCC(=O)Nc1sc(-c2cccnc2)nc1SC` yielded a melting point of 72 to 74 °C.
`Nc1ncc(Sc2ccc(F)cc2F)s1` yielded a melting point of 116 to 117 °C.
Molecule `COc1ccc(Cl)c2c1C(=O)OC2=O` registered a melting point of 192 to 193 °C.
`O=C(c1ccc(F)cc1)C1CC2CCN1CC2` (centres undefined) returned a melting point of 68 to 69 °C.
In the case of `Cc1sc2c(Cl)c(Cl)c(OCC(=O)O)cc2c1C` it was 218 to 219 °C; in that of `COC(=O)c1ccc(C(O)c2cnn3c(N(C)c4ccccc4)ncnc23)cc1` (centres undefined), 68 °C; in that of `CC(C)(C)OC(=O)NC(C(=O)O)c1ccccc1O` (centres undefined), 125 °C.
As for `COc1cc(C=O)ccc1OCc1nc(-c2cccc([N+](=O)[O-])c2)oc1C`, the melting point is 179 to 180 °C.
In turn, `CN1C(=O)CC[C@]2(C)c3ccc(Sc4ccc([N+](=O)[O-])cn4)cc3CC[C@@H]12` had a melting point of 188 to 191 °C.
`CCCn1nc(-c2c(-c3ccc(F)cc3)nn3ccc(OC)cc23)ccc1=O` had a melting point of 190 to 191 °C.
The molecule `Cc1nc(CC2CCc3c(C)c4ccccc4n3C2=O)c(C)[nH]1` (centres undefined) came in with a melting point of 219 to 221 °C.
In the case of `O=C1NCCn2c1cc1c2CCCC1` it was 207 to 209 °C.
In the case of `CC#COc1ccc2c(C)cc(=O)oc2c1` it was 140 to 141 °C.
Turning to `O=C1COc2ccc(C3=Cc4cc(F)ccc4SC3)cc2N1`, the melting point was 229 to 234 °C.
In the case of `COCC1CC(=O)c2nc(C)c(C)n2C1` (centres undefined) it was 103 to 104 °C.
Molecule `Cc1cc(SC(C)C)c(NC(=O)CCCSc2nc3c(C)c(Cl)cc(C(C)C)c3o2)c(SC(C)C)n1` returned a melting point of 141 to 143 °C.
`CCCn1cc(C(=O)O)c(=O)c2cc(C)sc21` displayed a melting point of 207 to 208 °C.
Regarding `CCC(=NOCc1ccc(Cl)cc1)c1cc(Cl)ccc1N(C(C)=O)S(=O)(=O)C(F)(F)F`, the melting point was 64 to 66 °C.
The molecule `COc1cc(C(=O)O)ccc1Cc1c(Cl)n(C)c2ccc(CC3CCN(C)C3=O)cc12` (centres undefined) gave a melting point of 204 to 205 °C.
For the molecule `NNC(=O)CCSCCOC1OC(CO)C(O)C(O)C1O` (centres undefined), the melting point was 178 to 179 °C.
On to `O=C(O)C1Cc2ccccc2N1S(=O)(=O)c1ccc(-c2ccc(F)cc2F)cc1` (centres undefined), for which the melting point was 88 to 92 °C.
`CC(C)CCn1c(=O)c(=NNc2ccccc2)c(=O)n(-c2ccccc2)c2ccccc21`: the melting point came to 143 °C.
In turn, `COC(=O)c1sc2c(c1N)c1ccccc1c(=O)n2-c1ccccc1Br` yielded a melting point of 214 to 216 °C.
`CCOCc1cc2ccccc2oc1=Nc1ccc(Cl)cc1` displayed a melting point of 84 to 86 °C.
`CS(=O)(=O)c1ccc(-c2cnn(-c3ccc(F)cc3)c(=O)c2OCCC2CC2)cc1` came in with a melting point of 111 to 117 °C.
`CC(C)c1cccc(C(C)C)c1NC(=O)NCC1c2ccccc2-c2ccccc21` had a melting point of 217 to 218 °C.
`CN(C(=O)COc1ccccc1)c1ccc(OC23CC4CC(CC(C4)C2)C3)cc1` yielded a melting point of 89 to 91 °C.
`C#CCN1CCCc2ccc(OC(=O)Nc3ccccc3OC)cc21` registered a melting point of 83 °C.
With `COc1ccc2c(c1)CCC1C2CCC2(C)C(NC=O)CCC12` (centres undefined), the melting point lay in the range of 252 to 253 °C.
Then `CC(C)c1cc(CCC(=O)NCc2cccc(NC(=N)c3cccs3)c2)cc(C(C)C)c1O`, with 144 to 145 °C.
`OCc1cccc(Oc2nn(Cc3ccccc3)c3ccccc23)n1` displayed a melting point of 156 to 158 °C.
With `COc1cc(O)c2c(=O)c(OC)c(-c3ccc(OC(=O)C(C)(C)C)c(OC)c3)oc2c1`, the melting point lay within 163 to 164 °C.
In the case of `CC(=O)Nc1c2c(cc3c1CCC3)CCC2` it was 257 to 259 °C; in that of `CCOC1=NC(C)(C)NC(N)=N1`, 175 to 178 °C.
Take `COc1ccc(C(=O)NCCCN(CCCNC(=O)c2ccc(OC)cc2)C(=O)c2ccc(OC)cc2)cc1`: the melting point is 117 to 119 °C.
In the case of `CCCCCCCCOc1ccc(-c2ncc(OC(=O)[C@@H](Cl)[C@@H](C)CC)cn2)c(F)c1F`, the melting point amounted to 66.2 °C.
Molecule `NS(=O)(=O)OCCN1CCCC1=O` registered a melting point of 110 to 112 °C.
Consider `CCCCCS(=O)(=O)NC(=O)/C=C/c1ccc(OCCC(C)(C)O)cc1Oc1ncc(C(F)(F)F)cc1Cl`, for which the melting point was 136 °C.
Take `C/C=C(\C)CNc1cccc(-c2ccnc3c(C(=O)c4cccs4)cnn23)c1`: the melting point fell in the range of 118 to 120 °C.
In the case of `O=C(NCO)N1CC(Oc2cccc(C(F)(F)F)c2)C1` it was 113 to 115 °C; in that of `O=C(NCc1noc(-c2ccc(CN3CCCCCC3)s2)n1)c1ccccc1`, 79 to 81 °C.
Molecule `CC(C)=CCOc1ccc(C(=O)C=Cc2ccc(C(C)(C)C)cc2)c(OCC(=O)O)c1` came in with a melting point of 136 to 139 °C.
In the case of `CCOC(=O)c1cnn(-c2ccc(Cl)cc2)c1C`, the melting point fell in the range of 55 to 56 °C.
For `CCn1cc(C(=O)Nc2cc(Oc3ccc4nc(NC(=O)C5CC5)cn4n3)ccc2F)c(C)n1`, the melting point came out at 199 °C.
The molecule `COC(=O)CCc1c(O)ncc2cc(OC)c(OC)cc12` displayed a melting point of 178 to 180 °C.
Then `CC(=O)Nc1ccc(/C=C\COCCCCCCNCC(O)c2ccc(O)c(CO)c2)cc1` (centres undefined), with 103 to 108 °C; and `Cc1[nH]c2ncnc(Nc3cccc(F)c3)c2c1C`, with 245 to 255 °C.
In turn, `CC1(C)CC(=O)c2cc(C#N)ccc2O1` yielded a melting point of 119 to 120 °C.
With `CNC(=O)Cc1ccc(CC(=O)O)cc1`, the melting point is 102 to 104 °C.
On to `O=C1c2ccccc2C(O)(c2ccccc2)N1C1CCN(CCC(c2ccccc2)c2ccccc2)CC1` (centres undefined), for which the melting point lay in the range of 150 to 153 °C.
`COc1ccc(-n2cnc3ccc(-c4nnc(SCc5ccc(OC)c(C(F)(F)F)c5)o4)cc32)cc1` came in with a melting point of 163 to 164 °C.
In the case of `COc1ccc2c(c1)C(c1ccccc1)C(=O)NCC2` (centres undefined) it was 155 to 170 °C; in that of `COc1cccc(CC(=O)O)c1OCCCc1cc(OC(C)C)nn1Cc1c(F)cccc1Cl`, 97 to 98 °C; in that of `Cn1c(=O)[n+]([O-])c(-c2ccccc2)c2cc(Cl)ccc21`, 254 °C.
Then `CCc1nc2c([nH]1)C(=O)N1CCN=C1N2Cc1ccc(Cl)cc1`, with 278 to 279 °C.
Take `CCN(CC)C1=NC(NC(=O)CCCCc2ccccc2)C(=O)N(C)c2ccccc21` (centres undefined): the melting point is 134 to 135 °C.
`O=C(O)CC(=O)Oc1cccc(-c2cn3c(n2)sc2ccccc23)c1` showed a melting point of 159 to 161 °C.
For `CCCNC(=O)c1ccc2c(c1)C(=O)NC(C(Cl)(Cl)Cl)O2` (centres undefined), the melting point lay within 228 to 230 °C.
In the case of `CC(=O)c1cccc(OC2SCC(O)C(O)C2O)c1` (centres undefined) it was 166 to 174 °C; in that of `Nc1c2c(nc3ccccc13)CCCC2=O`, 236 to 238 °C.
In the case of `O=c1cc(OCc2ccccc2)cc(C=Cc2ccc3c(c2)OCO3)o1` it was 150 to 152 °C; in that of `COc1ccc2c(c1)NC(=O)C(CCO)O2` (centres undefined), 111 to 113 °C; in that of `CC12CCC(C(=O)O)=CC1=CCC1C2CCC2(C)C(C(=O)CCc3ccc(F)cc3)CCC12` (centres undefined), 220 °C.
`CN(C)Cc1noc(-c2nn(Cc3ccccc3)c3ccccc23)n1` had a melting point of 93 to 95 °C.
In the case of `COc1cc(Nc2nccc(-c3nc4ccccc4s3)n2)cc(OC)c1OC` it was 182 to 183 °C.
In the case of `CC(=O)Nc1ccc(S(=O)(=O)c2ccc(Br)cc2)cc1` it was 195 to 199 °C.
As to `COc1ccc(C2=CCN(CCCN3c4cccc5cccc(c45)S3(=O)=O)CC2)cc1`, the melting point is 178 °C.
